Here are results for 4 compounds from patent publication US12630523B2, “Isoquinoline derivatives for use as antiviral and antitumour agents” (priority 2021, dated 2026).

Molecules are shown by their SMILES.

For one series, the target named is T1, HPV16 E7 protein (Human papillomavirus type 16, UniProt P03129).
T1 construct: endogenous in cells; host or cells: CaSki cells (HPV16-positive cervical carcinoma)
T1 sequence (P03129 whole entry): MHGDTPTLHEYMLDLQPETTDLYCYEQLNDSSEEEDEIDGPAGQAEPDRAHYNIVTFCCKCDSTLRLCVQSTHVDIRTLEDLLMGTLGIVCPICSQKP
Test: not given
It counts as cell-based. The following applies: CaSki cells; adjusted degradation, CHX steady state set to 100% degradation. On the procedure: For intracellular antibody labeling, 0.5×10^6 cells are washed once with 1 ml ice-cold PBS. Cells are centrifuged at 350×g for 5 minutes at 4° C. and then fixed in 1% paraformaldehyde (1 ml/10^6 cells) for 20 minutes at 4° C. Cells are washed with 1 ml ice-cold PBS and centrifuged at 350×g for 5 minutes at 4° C. To permeabilize cells, 100% ice-cold methanol (1 ml/10^6 cells) is added to the cells and incubated for 20 minutes at 4° C. followed by centrifugation at 350×g for 5 minutes at 4° C. Cells are washed with 1 ml ice-cold PBS, centrifuged at 350×g for 5 minutes at 4° C. and resuspended in 0.1% saponin+2% FBS in PBS (ice-cold). Cells are left for 20-30 minutes at room temperature to reduce the background signal and then centrifuged at 350×g for 5 minutes at 4° C. The primary antibody (mAb_HPV16E7-1 (VS13004); concentration 1 μg/μl) is diluted in 0.1% saponin+2% FBS (dilution 0.25 μg/50 μl of incubation buffer per 1×10^6 cells (5 ng/μl)). Cells are incubated with primary antibody for 30 minutes at room temperature, washed with 0.1% saponin+2% FBS and centrifuged at 350×g for 5 minutes at 4° C. The secondary antibody (FITC conjugated goat anti-mouse IgG1-IgM, BD, cat. #555988) is diluted in 0.1% saponin+2% FBS (dilution 1:50). Cells are incubated with secondary antibody for 30 minutes at room temperature, washed once with 0.1% saponin+2% FBS, once with PBS and centrifuged at 350×g for 5 minutes at 4° C.
Cells are resuspended in 700 μl PBS prior to CF analysis with a Beckman Coulter FC 500 MPL, (excitation laser 488 nm). Data analysis is done using the Beckman Coulter software packages MXP for acquisition and CXP for data analysis which includes MFI calculation. Detection of HPV-E7 protein expression is based on morphology back-gating of FL1 histogram (logarithmic scale) with gating for dot plot FS (Forward Scatter) log/SS (Sideward Scatter) log and gating for histograms SS log.
In order to define the level of E7 protein expression and to study the extent of E7 protein steady state level reduction in E7 expressing cells in the presence of various compounds, FC analysis is implemented using the intracellular antibody labeling procedure for monoclonal antibodies to HPV E7. E7 signal intensities are analyzed from the obtained FL1 histograms at logarithmic scale. The FL1 single histogram graph represents the variation in the mean fluorescence intensity (MFI) channel for cells treated with selected compounds compared to cells not incubated with primary antibodies but incubated with secondary, which allows to test for auto-fluorescence, and non-compound treated cells as controls. Non-primary antibody-stained cells are used to set the acquisition parameters to zero. Decrease of the mean fluorescence intensity channel corresponds to a decrease in the expression of HPV16 E7 protein. Degradation of E7 in cells is calculated as percent (%) reduction in MFI(x-Me) using the following formulas: % Drel=(T−C)/T*100; i) relative degradation: % Dad=(T−C)/(T−CHX)*100; ii) adjusted degradation: • Drel=relative degradation, • Dad=adjusted degradation assuming CHX % Drel=100; • T=MFI of non-treated cells; • C=MFI of compound treated cells; • CH=MFI of cycloheximide (CHX) treated cells;
For comparison within one experiment i) the % relative degradation (Drel) is sufficient, whereas for comparison between two or more experiments ii) the adjusted degradation (Dad) is used and CHX steady state is set to a 100% degradation parameter.
1×10^6 freshly seeded CaSki cells (ATCC CRL-7915), are grown in 10 cm diameter cell culture dishes in RPMI1640, 10% FCS medium at 37° C. 5% CO2 overnight and then incubated in the presence of 10 μM Cycloheximide (CHX) 10 μM OC246 or with vehicle alone for four hours at 37° C. 5% CO2. Following this E7 protein is assessed by cytofluorimetric analysis using intracellular HPV16 E7 antibody labeling. […]
Take `CN1CCN(c2cccc(NC(=O)[C@@H]3c4ccccc4C(=O)N(Cc4cccnc4)[C@H]3c3ccc(C(F)(F)F)cc3)c2)CC1` (relative stereo) [OC976]: the “% Dad” value stood at 54%.

The next series deals with CaSki cells. The series is described as follows: Cell cycle analysis using Propidium-Iodide staining (flow cytometry). It counts as cell-based, human. The following applies: 48 hour incubation, 5 μM, no treatment 15.0. As for the experimental part: Propidium-Iodide (PI) DNA staining is performed to facilitate cell cycle analysis. For PI-DNA staining, fixed cells and eventually antibody-stained cells are resuspended in 450 μl of PBS (per 10^6 cells) and incubated with 100 μg/ml RNase (stock 1 mg/ml, in PBS) for 10 minutes at 37° C. Cells are then incubated with 5 μg/106 cells of PI (stock 1 mg/ml in PBS) for 10 minutes at room temperature. Samples are stored at 4° C. until CF analysis.
CaSki cells were incubated with various compounds and cell cycle distribution of the cells was assessed using Propidium-Iodide staining.
In order to analyze the cytostatic versus the cytotoxic effect of OC compounds, cell cycle profiles were analyzed in vitro after 48 hour incubations using Flow Cytometry as a read out. For this a cell cycle analysis from selected OC E7 degrader compounds was conducted in CaSki cells. Using 6 well plates, 1.5×10^5 cells were seeded for each well and grown over night at 37° C. 5% CO2. For analysis of the cell cycle behavior, cells were analyzed in the presence of propidium Iodide (PI^−) by flow cytometry (FC). Briefly, cells were detached by trypsin digestion, all supernatants were included in the analysis, and fixed with 70% ice cold ethanol and stored at 4° C. until FC analysis using PI^− staining (1 mg/ml). At least 7000 events were acquired for each sample.
Background: A flow cytometer gives signals particle by particle.
Consider `CN1CCN(c2cccc(NC(=O)[C@@H]3c4ccccc4C(=O)N(Cc4cccnc4)[C@H]3c3ccc(C(F)(F)F)cc3)c2)CC1` (relative stereo) [OC976], for which the “A*/5 μM (apoptosis as measured from total SUB G1 content)” value is 11.4%.

Still in this series, the particulars now being: 48 hour incubation, 10 μM, no treatment 15.0.
As to `CN1CCN(c2cccc(NC(=O)[C@@H]3c4ccccc4C(=O)N(Cc4cccnc4)[C@H]3c3ccc(C(F)(F)F)cc3)c2)CC1` (relative stereo) [OC976], the “A*/10 μM (apoptosis as measured from total SUB G1 content)” value is 12.8%.

Staying with this series, now noted: cell cycle distribution, 48 hour incubation, 5 μM, no treatment 15.6.
In the case of `CN1CCN(c2cccc(NC(=O)[C@@H]3c4ccccc4C(=O)N(Cc4cccnc4)[C@H]3c3ccc(C(F)(F)F)cc3)c2)CC1` (relative stereo) [OC976], the “G2/5 μM” value was determined as 9.3%.

Staying with this series, now noted: cell cycle distribution, 48 hour incubation, 5 μM, no treatment 53.3.
As to `CN1CCN(c2cccc(NC(=O)[C@@H]3c4ccccc4C(=O)N(Cc4cccnc4)[C@H]3c3ccc(C(F)(F)F)cc3)c2)CC1` (relative stereo) [OC976], the “G1/5 μM” value was 58.8%.

Still in this series, the particulars now being: cell cycle distribution, 48 hour incubation, 10 μM, no treatment 15.6.
In the case of `CN1CCN(c2cccc(NC(=O)[C@@H]3c4ccccc4C(=O)N(Cc4cccnc4)[C@H]3c3ccc(C(F)(F)F)cc3)c2)CC1` (relative stereo) [OC976], the “G2/10 μM” value is reported as 16.9%.

The same series, now with this note: cell cycle distribution, 48 hour incubation, 10 μM, no treatment 53.3.
Consider `CN1CCN(c2cccc(NC(=O)[C@@H]3c4ccccc4C(=O)N(Cc4cccnc4)[C@H]3c3ccc(C(F)(F)F)cc3)c2)CC1` (relative stereo) [OC976], for which the “G1/10 μM” value amounted to 53.2%.

A further series deals with human cervical carcinoma (CaSki) xenograft. The series is described as follows: CaSki high risk HPV16 human cervical carcinoma xenograft model. Type of series: in vivo, nude mice. To be noted: OC246/OC974 os 2 mg/kg/day, 4 × week, 3 cycles; CDDP i.v. q7d × 3, 6 mg/kg. As for the experimental part: The aim of this study was to assess the in vivo efficacy of OC246 and OC974 on a human cervical carcinoma (CaSki) xenograft model in nude mice. OC246 and OC974 were administered oral once daily for four times with three days off, for three cycles at 2 mg/kg/dose. Cisplatin (CDDP) was used as a reference compound with three weekly intravenous (q7dx3) administrations of 6 mg/kg.
Turning to `[NH2][Pt]([NH2])([Cl])[Cl]` [CDDP, Cisplatin, reference compound], the “% TGI (Day 44): percentage tumor growth inhibition with respect to controls” value was 79.2%.

Staying with this series, now noted: OC246/OC974 os 2 mg/kg/day; CDDP i.v. 6 mg/kg; control 100.
As to `[NH2][Pt]([NH2])([Cl])[Cl]` [CDDP, Cisplatin, reference compound], the “Δ% on Day 44” value is on record as 14%.

Still in this series, the particulars now being: OC246/OC974 os daily 4 × week, 3 cycles, 2 mg/kg/day; CDDP i.v. q7d × 3, 6 mg/kg; control 1099 ± 503.
`[NH2][Pt]([NH2])([Cl])[Cl]` [CDDP, Cisplatin, reference compound]: the “Tumor Volume Day 44 (mm^3 ± SD)” value is listed as 242 ± 182 mm^3.

Staying with this series, now noted: between first day of treatment (day 20) and Day 44; OC246/OC974 os 2 mg/kg/day; CDDP i.v. 6 mg/kg; control +4.9.
On to `[NH2][Pt]([NH2])([Cl])[Cl]` [CDDP, Cisplatin, reference compound], for which the “Δ% Body Weight” value was −10.2%.

For a further series, the system named is CaSki (ATCC CRM-CRL-1550). The series is described as follows: Monolayer assay using Sulphorhodamine B (SRB) staining, CaSki. It counts as cell-based. To be noted: Homo sapiens, Ca-Ski, read-out: EC50 mean [nM]. On the procedure: Various cell culture cells grown as monolayers are harvested from exponential growing cultures after treatment with various OC compounds at different concentrations. For this depending on the cell line, 10.000 to 30.000 cells were plated in 96-well flat-bottom microtiter plates. After a 24 h recovery period to allow cells to resume exponential growth, supernatants are discarded and 100 μl of culture medium (eight control wells/plate) or culture medium with the test compound are added by a liquid handling robotic system (Microlab® Starlet, Hamilton) and treatment continued for 72 hrs. Compounds are applied at 9 concentrations and eight wells/concentration). At least three independent experiments are performed. For SRB staining, cells are fixed with SRB01 (Tab. 5) for 1 h at 4° C. (final concentration of TCA=10%) washed with a plate washer (Hydroflex, Tecan©) for five times with H2O; and stained with 100 μl of SRB02 at room temperature for 10 min following 4 washes in SRB03 and finally 100 μl of developer solution SRB04 for 5 minutes with shaking. Optical density is assessed using a plate-reader (Sunrise, Tecan©) at 540 nm.
Concentrations required for half maximal response of the compound for cell growth inhibition (EC50) is calculated by non-linear regression (log[conc. of inhibitor] versus response (% T/C)) using the analysis software GraphPad Prism®, Prism 5 for windows, version 5.01 (GraphPad Software Inc., CA).
(In general: Sulforhodamine B stains cellular protein and so reports cell mass.)
Consider `CN1CCN(c2cccc(NC(=O)[C@@H]3c4ccccc4C(=O)N(Cc4cccnc4)[C@H]3c3ccc(C(F)(F)F)cc3)c2)CC1` (relative stereo) [OC976], for which the EC50 (commonly the concentration at which the effect is half-maximal) came out at 4720 nM.

A further series has as its system SARS-CoV-2 isolate BetaCov/Belgium/GHB-03021/2020. In words: microbe, parasite or virus in culture. The following applies: 1.25 μM (non-toxic compound concentration), n4. Type of series: cell-based.
Take `Nc1ccc(-c2ccc3ncc4ccc(=O)n(-c5cccc(C(F)(F)F)c5)c4c3c2)cn1` [Torin2, reference compound]: the % Inhibition (commonly the change of the read-out against control, counted positive when it falls) was 1.46%.

For the compound `CCC(=O)N1CCN(c2ccc(-n3c(=O)ccc4cnc5ccc(-c6cnc7ccccc7c6)cc5c43)cc2C(F)(F)F)CC1` [Torin 1, reference compound], the “% Inhibition” value turned out to be 7.00%.

Still in this series, the particulars now being: Severe acute respiratory syndrome coronavirus 2; 1.25 μM (non-toxic compound concentration), n4.
Regarding `CN1CCN(c2cccc(NC(=O)[C@@H]3c4ccccc4C(=O)N(Cc4cccnc4)[C@H]3c3ccc(C(F)(F)F)cc3)c2)CC1` (relative stereo) [OC976], the inhibition (commonly the relative decrease from the control value, in per cent) at 1.25 µM was found to be 27.1%.

In a further series the test system is cell signaling molecules (4E-BP1, p70 S6 kinase, Akt, PTPN14, p53, PD-L1). The series is described as follows: Western blot of cell signaling molecules in CaSki cells. The following applies: CaSki, 6 h; order 10 μM VSP035, Torin 1, Torin 2, rapamycin, 5 μM VSP035, CGP 57380. (Immunoblotting shows a protein as a band on a membrane.)
Consider `Nc1ccc(-c2ccc3ncc4ccc(=O)n(-c5cccc(C(F)(F)F)c5)c4c3c2)cn1` [Torin2, reference compound], for which the “Phosphorylation of 4E-BP1 on Ser65 and the p70S6 kinase on Thr389” value was “inhibited or strongly reduced”.

On to `CCC(=O)N1CCN(c2ccc(-n3c(=O)ccc4cnc5ccc(-c6cnc7ccccc7c6)cc5c43)cc2C(F)(F)F)CC1` [Torin 1, reference compound], for which the “Phosphorylation of 4E-BP1 on Ser65 and the p70S6 kinase on Thr389” value is “inhibited or strongly reduced”.

Still in this series, the particulars now being: CaSki, 6 h treatment.
Turning to `Nc1ccc(-c2ccc3ncc4ccc(=O)n(-c5cccc(C(F)(F)F)c5)c4c3c2)cn1` [Torin2, reference compound], the “phosphorylation of AKT on Ser473” value was “inhibited”.

Consider `CCC(=O)N1CCN(c2ccc(-n3c(=O)ccc4cnc5ccc(-c6cnc7ccccc7c6)cc5c43)cc2C(F)(F)F)CC1` [Torin 1, reference compound], for which the “phosphorylation of AKT on Ser473” value is given as “inhibited”.
